Data as given in patent publication US20240336574A1 (LATIGO BIOTHERAPEUTICS, INC., priority 2021, published 2024).
Like-named read-outs stand apart in the source and are kept apart here.

Biological target: T1, recombinant human NaV1.8 stably transfected HEK cells (Homo sapiens, UniProt Q9Y5Y9)
T1 construct: expressed in transfected cells; host or cells: HEK cells, stably transfected
Test: Compound profiling on NaV1.8, human NaV1.8 cell line, SyncroPatch384PE automated patch clamp assay (Example 102, first set of compounds, Table 16)
Type: cell-based
Details: human NaV1.8 HEK cells, Table 16 (first set of compounds)
Protocol: Compound Profiling on NaV1.8—Human NaV1.8 Cell Line—SyncroPatch384PE Assay
Compounds were tested on recombinant human NaV1.8 stably transfected HEK cells using the SyncroPatch384PE system, an automated patch clamp device. Cells were cultured at 37° C./5% CO2 in DMEM medium supplemented with GlutaMAX I, NEAA 1%, FBS 10% and seeded in T175 flasks. Cells were cultured at 30° C. one day prior to recording sodium currents. On the day of the recordings, cells were detached with 0.05% Trypsin-EDTA, resuspended in serum free DMEM medium and placed into the SyncroPatch384PE 6° C. pre-cooled cell hotel and shaken at 200 rpm. Intracellular solution (IC) contained, in mM: 10, CsCl; 110, CsF; 20, EGTA; 10, HEPES. Extracellular solution (EC) contained, in mM: 140, NaCl; 4, KCl; 5, Glucose; 10, HEPES; 2, CaCl2; 1, MgCl2. Washing solution contained, in mM: 40, NMDG; 100, NaCl; 4, KCl; 10, Glucose; 10, HEPES; 5, CaCl2; 1, MgCl2.
Compounds were tested in triplicate in 0.1% DMSO and 0.030% Pluronic Acid. Compounds were diluted 1:3 in EC solution to create a 10-point concentration response curve, spanning a final concentration range from 20-0.001 μM in the assay plate. Each plate contained tetracaine and another tool compound as positive controls. Up to 8 compounds were tested on one plate. 250 μM tetracaine and 0.1% DMSO were used as high and low controls, respectively. Whole cell patch clamp recordings were conducted according to Nanion's standard procedure for SyncroPatch384PE®. Cells were held at a holding potential of −120 mV. A depolarization step to 10 mV for 30 ms was applied (P1 measurement), followed by a hyperpolarization step to −100 mV for 100 ms. An inactivation step at −40 mV for 10 sec was applied before stepping to −100 mV for 20 ms, followed by a step to 10 mV for 30 ms (P2 measurement) and then back to −100 mV for 30 ms. Sweep interval was 15 sec with a sampling rate of 10 kHz. Following establishment of the whole-cell configuration in EC, two washing steps with reference buffer were performed to stabilize the baseline. Compounds were then applied by the SynchroPatch into each well and the current was recorded for five minutes in EC, followed by application of tetracaine to achieve full block at the end of the experiment. The potency of the compounds was assessed on two read-outs, resting state block (P1 measurement) or inactivated state block (P2 measurement) to obtain IC50 values. Values were normalized to high (tetracaine) and low (DMSO) controls. The IC50 values are listed in Table 16 as follows: “A” represents an IC50 less than or equal to 20 nM, “B” represents an IC50 greater than 20 nM to less than or equal to 40 nM, “C” represents an IC50 greater than 40 nM to less than or equal to 200 nM, “D” represents an IC50 greater than 200 nM to less than or equal to 500 nM.

[1] = inactivated state block (P2 measurement), read-out: P2IC50
[2] = resting state block (P1 measurement), read-out: P1IC50

T1 sequence (Q9Y5Y9 whole entry): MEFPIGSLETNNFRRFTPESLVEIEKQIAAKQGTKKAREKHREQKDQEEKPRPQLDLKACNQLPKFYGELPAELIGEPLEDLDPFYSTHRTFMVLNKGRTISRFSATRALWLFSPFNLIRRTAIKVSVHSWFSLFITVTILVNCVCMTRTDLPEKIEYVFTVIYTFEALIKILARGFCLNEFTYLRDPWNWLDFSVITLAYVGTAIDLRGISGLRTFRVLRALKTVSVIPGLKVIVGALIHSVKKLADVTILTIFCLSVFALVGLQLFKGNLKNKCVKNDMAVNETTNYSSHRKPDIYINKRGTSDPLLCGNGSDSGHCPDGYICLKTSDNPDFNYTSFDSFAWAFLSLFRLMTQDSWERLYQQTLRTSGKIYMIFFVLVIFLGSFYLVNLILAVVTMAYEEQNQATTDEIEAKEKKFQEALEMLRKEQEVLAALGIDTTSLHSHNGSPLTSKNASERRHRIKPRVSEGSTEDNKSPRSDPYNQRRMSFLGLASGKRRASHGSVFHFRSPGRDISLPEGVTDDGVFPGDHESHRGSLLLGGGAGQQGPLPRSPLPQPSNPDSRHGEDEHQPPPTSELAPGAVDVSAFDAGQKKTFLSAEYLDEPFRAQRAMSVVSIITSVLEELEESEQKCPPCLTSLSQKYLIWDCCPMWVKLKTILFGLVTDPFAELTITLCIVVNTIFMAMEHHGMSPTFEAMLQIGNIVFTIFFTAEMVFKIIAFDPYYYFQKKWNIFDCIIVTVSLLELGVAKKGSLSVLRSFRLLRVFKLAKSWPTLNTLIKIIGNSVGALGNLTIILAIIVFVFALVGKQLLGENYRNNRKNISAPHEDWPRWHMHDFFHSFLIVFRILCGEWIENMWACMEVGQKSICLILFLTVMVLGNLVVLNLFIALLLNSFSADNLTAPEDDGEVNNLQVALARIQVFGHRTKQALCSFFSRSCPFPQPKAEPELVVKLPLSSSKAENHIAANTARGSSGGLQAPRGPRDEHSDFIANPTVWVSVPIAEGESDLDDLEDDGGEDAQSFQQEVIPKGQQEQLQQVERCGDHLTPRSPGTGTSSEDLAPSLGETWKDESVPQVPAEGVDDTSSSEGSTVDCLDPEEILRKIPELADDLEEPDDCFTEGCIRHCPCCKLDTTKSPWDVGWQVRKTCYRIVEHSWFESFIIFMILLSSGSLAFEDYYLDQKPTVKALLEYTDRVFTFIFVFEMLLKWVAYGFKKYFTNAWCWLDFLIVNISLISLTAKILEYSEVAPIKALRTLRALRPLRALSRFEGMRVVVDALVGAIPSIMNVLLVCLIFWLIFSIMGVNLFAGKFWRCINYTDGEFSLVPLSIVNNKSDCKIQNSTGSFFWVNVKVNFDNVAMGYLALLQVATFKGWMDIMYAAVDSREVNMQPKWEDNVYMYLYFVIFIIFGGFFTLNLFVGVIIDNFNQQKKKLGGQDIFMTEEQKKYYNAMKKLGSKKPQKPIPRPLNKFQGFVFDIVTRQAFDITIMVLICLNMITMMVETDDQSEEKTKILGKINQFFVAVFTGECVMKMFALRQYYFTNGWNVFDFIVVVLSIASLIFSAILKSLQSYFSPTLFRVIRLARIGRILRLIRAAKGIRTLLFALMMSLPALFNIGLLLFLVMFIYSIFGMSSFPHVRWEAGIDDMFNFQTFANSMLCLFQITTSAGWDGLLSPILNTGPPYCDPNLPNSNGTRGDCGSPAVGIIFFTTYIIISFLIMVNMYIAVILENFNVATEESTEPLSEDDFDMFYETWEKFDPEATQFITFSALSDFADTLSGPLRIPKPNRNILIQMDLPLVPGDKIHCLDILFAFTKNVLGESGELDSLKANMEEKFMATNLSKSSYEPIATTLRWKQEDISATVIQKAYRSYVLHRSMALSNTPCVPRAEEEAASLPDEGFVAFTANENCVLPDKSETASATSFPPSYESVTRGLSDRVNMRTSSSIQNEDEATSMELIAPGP

Row | Compound | IC50 [1] [nM] | IC50 [2] [nM]
1 | Cc1nc(OC2CCC2)ccc1Oc1ncc(C(F)(F)F)cc1C(=O)Nc1ccc(C(N)=O)cc1 [Compound 1566, N-(4-carbamoylphenyl)-2-[[6-(cyclobutoxy)-2-methyl-3-pyridyl]oxy]-5-(trifluoromethyl)pyridine-3-carboxamide] | 200 to 500 | 200 to 500
2 | COc1c(Oc2nnc(C(F)(F)F)c(C)c2C(=O)Nc2ccc[n+]([O-])c2)ccc(F)c1F [Compound 1476, 3-(3,4-difluoro-2-methoxy-phenoxy)-5-methyl-N-(1-oxidopyridin-1-ium-3-yl)-6-(trifluoromethyl)pyridazine-4-carboxamide] | ≤ 20 | ≤ 20
3 | COc1c(Oc2nnc(C(F)(F)F)c(C)c2C(=O)Nc2cccnc2)ccc(F)c1F [Compound 1475, 3-(3,4-difluoro-2-methoxy-phenoxy)-5-methyl-N-(3-pyridyl)-6-(trifluoromethyl)pyridazine-4-carboxamide] | ≤ 20 | ≤ 20
4 | COc1ncc(Oc2ncc(C(F)(F)F)cc2C(=O)Nc2cccc(S(C)(=N)=O)c2)cc1F (stereo not shown) [Compound 1699] | 200 to 500 | 200 to 500
5 | NC(=O)c1cccc(NC(=O)c2cc(C(F)(F)F)cnc2Oc2cnc(C(F)(F)F)nc2)c1 [Compound 1695] | 200 to 500 | 200 to 500
6 | CC(C)Oc1ccc(Oc2ncc(C(F)(F)F)cc2C(=O)Nc2cccc(C(N)=O)c2)c(F)c1 [Compound 1708] | 200 to 500 | 200 to 500
7 | CS(=O)(=O)c1cccc(NC(=O)c2cc(C(F)(F)F)cnc2Oc2cnc(Cl)c3ccccc23)c1 [Compound 1582] | 200 to 500 | 200 to 500
8 | COc1cc(C#N)ccc1Oc1nnc(C(F)(F)F)c(C)c1C(=O)Nc1cccc(C(=O)N2CCNCC2)c1 [Compound 1438, 3-(4-cyano-2-methoxy-phenoxy)-5-methyl-N-[3-(piperazine-1-carbonyl)phenyl]-6-(trifluoromethyl)pyridazine-4-carboxamide] | 40 to 200 | 40 to 200
9 | Cc1ccc(Oc2nnc(C(F)(F)F)c(C)c2C(=O)Nc2cccc(S(C)(=O)=O)c2)c(C)n1 [Compound 1420] | 200 to 500 | 200 to 500
10 | COc1ncc(C(N)=O)cc1Oc1ncc(C(F)(F)F)cc1C(=O)Nc1cccc(S(C)(=N)=O)c1 (stereo not shown) [Compound 1622] | 200 to 500 | 200 to 500
11 | NC(=O)c1ccc(NC(=O)c2cc(C(F)(F)F)cnc2Oc2ccc(C(F)F)nc2)cc1 [Compound 1676] | 200 to 500 | 200 to 500
12 | CS(=N)(=O)c1cccc(NC(=O)c2cc(C(F)(F)F)cnc2Oc2ccc(-c3ccccc3)cc2)c1 (stereo not shown) [Compound 1585] | 200 to 500 | 200 to 500
13 | Cc1cc(F)ccc1Oc1nnc(C(F)(F)F)c(C)c1C(=O)Nc1ccc(C(N)=O)cc1 [Compound 1416] | 40 to 200 | 40 to 200
14 | Cc1c(C(F)(F)F)nnc(Oc2ccc(Cl)cc2)c1C(=O)Nc1cccc(S(C)(=N)=O)c1 (stereo not shown) [Compound 22] | 40 to 200 | 20 to 40
15 | COc1cc(C#N)ccc1Oc1nccc(C(F)(F)F)c1C(=O)Nc1cccc(S(C)(=N)=O)c1 (stereo not shown) [Compound 1653] | 40 to 200 | 40 to 200
16 | COc1c(Oc2ncc(C(F)(F)F)cc2C(=O)NC23CC(C(N)=O)(C2)C3)ccc(F)c1F [Compound 1722, N-(3-carbamoyl-1-bicyclo[1.1.1]pentanyl)-2-(3,4-difluoro-2-methoxy-phenoxy)-5-(trifluoromethyl)pyridine-3-carboxamide] | 200 to 500 | 200 to 500
17 | Cc1cc(F)ccc1Oc1ncc(C(F)(F)F)cc1C(=O)Nc1cccc(S(C)(=O)=O)c1 [Compound 1574, 2-(4-fluoro-2-methyl-phenoxy)-N-(3-methylsulfonylphenyl)-5-(trifluoromethyl)pyridine-3-carboxamide] | ≤ 20 | ≤ 20
18 | COc1ccc(Oc2nnc(C(F)(F)F)c(C)c2C(=O)Nc2cccc(S(C)(=N)=O)c2)c(C)n1 (stereo not shown) [Compound 1507, N-{3-[imino(methyl)oxo-λ^6-sulfanyl]phenyl}-3-[(6-methoxy-2-methylpyridin-3-yl)oxy]-5-methyl-6-(trifluoromethyl)pyridazine-4-carboxamide] | 40 to 200 | 40 to 200
19 | COc1cc(C#N)ccc1Oc1nnc(-c2ccc(C)cc2)c(C)c1C(=O)Nc1cccc(S(C)(=N)=O)c1 (stereo not shown) [Compound 1450, 3-(4-cyano-2-methoxy-phenoxy)-5-methyl-N-[3-(methylsulfonimidoyl)phenyl]-6-(p-tolyl)pyridazine-4-carboxamide] | ≤ 20 | ≤ 20
20 | Cc1cc(F)ccc1Oc1nnc(C(C)O)c(C)c1C(=O)Nc1cccc(S(C)(=N)=O)c1 (stereo not shown) [Compound 1547, 3-(4-fluoro-2-methyl-phenoxy)-6-(1-hydroxyethyl)-5-methyl-N-[3-(methylsulfonimidoyl)phenyl]pyridazine-4-carboxamide] | 200 to 500 | 200 to 500
21 | COc1cc(C#N)ccc1Oc1nnc(-c2ccc(C#N)cc2)c(C)c1C(=O)Nc1cccc([S@@](C)(=N)=O)c1 [Compound 1532, 3-(4-cyano-2-methoxyphenoxy)-6-(4-cyanophenyl)-N-{3-[(S)-imino(methyl)oxo-λ^6-sulfanyl]phenyl}-5-methylpyridazine-4-carboxamide] | 40 to 200 | 40 to 200
22 | Cc1c(C(F)(F)F)nnc(Oc2ccc(Cl)cc2F)c1C(=O)Nc1cccc(S(C)(=N)=O)c1 (single isomer, unassigned) [Compound 1471, 3-(4-chloro-2-fluoro-phenoxy)-5-methyl-N-[3-(methylsulfonimidoyl)phenyl]-6-(trifluoromethyl)pyridazine-4-carboxamide] | ≤ 20 | ≤ 20
23 | COc1cc(C#N)ccc1Oc1nnc(-c2ccccc2)c(C)c1C(=O)Nc1cccc(S(C)(=N)=O)c1 (stereo not shown) [Compound 1436, 3-(4-cyano-2-methoxyphenoxy)-5-methyl-N-(3-(S-methylsulfonimidoyl)phenyl)-6-phenylpyridazine-4-carboxamide] | 40 to 200 | 20 to 40
24 | CN=S(C)(=O)c1cccc(NC(=O)c2cc(C(F)(F)F)cnc2Oc2ccc(F)cc2C)c1 (stereo not shown) [Compound 1717, N-[3-(N,S-dimethylsulfonimidoyl)phenyl]-2-(4-fluoro-2-methyl-phenoxy)-5-(trifluoromethyl)pyridine-3-carboxamide] | ≤ 20 | ≤ 20
25 | CS(=N)(=O)c1cccc(NC(=O)c2cc(C(F)(F)F)cnc2Oc2ccc(OC3CC3)cc2)c1 (stereo not shown) [Compound 1588] | 40 to 200 | 40 to 200
26 | NC(=O)c1cccc(NC(=O)c2cc(C(F)(F)F)cnc2OC2CC3C(C2)C3(F)F)c1 (stereo not shown) [Compound 1677] | 200 to 500 | 200 to 500
27 | CS(=N)(=O)c1cccc(NC(=O)c2cc(C(F)(F)F)cnc2OCC23CC(C#N)(C2)C3)c1 (stereo not shown) [Compound 1631] | 200 to 500 | 200 to 500
28 | CCOC(=O)c1cc(NC(=O)c2c(Oc3ccc(F)cc3C)nnc(C(F)(F)F)c2C)cc(S(C)(=O)=O)c1 [Compound 1429] | 200 to 500 | 200 to 500
29 | COc1cc(C#N)ccc1Oc1nnc(-c2ccccc2F)c(C)c1C(=O)Nc1cccc(S(C)(=N)=O)c1 (stereo not shown) [Compound 1452, 3-(4-cyano-2-methoxy-phenoxy)-6-(2-fluorophenyl)-5-methyl-N-[3-(methylsulfonimidoyl)phenyl]pyridazine-4-carboxamide] | 40 to 200 | 40 to 200
